# What was measured:
# [1] = biological target: PHD2_181-402 (Homo sapiens, UniProt Q9GZT9); assay: PHD2_181-402 inhibition assay (bioluminescent succinate detection, Succinate-Glo); format: biochemical
# Protocol: PHD2_181-402 activity and inhibition assays were performed with the Succinate-Glo JmjC Demethylase/Hydroxylase Assay Kit (Promega) according to manufacturer protocol and as detailed in Alves et al. […] The enzymatic reaction was incubated at room temperature for 10 minutes, after which succinate formation was detected according to manufacturer protocol. […] Then, 20 µL of Succinate Detection Reagent II was added to the reactions and incubated for 10 min at room temperature before the luciferase-generated luminescence was recorded on a plate-reading luminometer. Succinate standard curves were used to determine the sensitivity and linear range of the bioluminescent succinate detection. […] Succinate standards were serially diluted two-fold from 15 µM to 58.6 nM and a 0 succinate blank. 10 µL of succinate standards were used for detection as described above. […] Reactions were incubated at room temperature for 10 minutes and succinate detected. […] Measured IC50s were calculated from fitting the percentage activity data to the [Inhibitor] vs. normalized response – variable slope least squares nonlinear regression in GraphPad Prism 9. True IC50s were calculated from measured IC50s with the equation derived by Wu et al.[26] describing the relationship between the measured IC50 of an inhibitor and the percentage of substrate conversion.
# [2] = system: murine colon tissue; assay: Rectal gavage in antibiotic-treated SCFA-depleted mice; format: in vivo; settings: after antibiotics
# Protocol: C57BL/6 mice were purchased from Jackson Laboratories. Animals were maintained and bred in standard housing conditions under 24 h/day, 7 days/week veterinary care available at the University of Colorado Anschutz Medical Campus (AMC) animal facility. All animal procedures were reviewed and approved by the Institutional Animal Care and Use Committee at AMC. 8 to 10-week-old male and female mice were pre-administered an antibiotic cocktail consisting of 1 mg/mL ampicillin, gentamicin, and neomycin, 0.5 mg/mL vancomycin, and 0.25 mg/mL metronidazole for 5 d ad libitum in addition to water control mice. Mice were then given 200 µL of tributyrin daily for three days using reusable feeding needles (18060–20, Fine Science Tools). On the third day, 4 h prior to sacrifice, select mice given tributyrin were rectally given 100 μL of 60 mM MCPA with plastic gavage tubes (FTP-20-38-50, Instech) inserted 1 cm into the rectum without surgical lubricant. Whole colon tissue at the site of the rectal gavage was collected for metabolite analysis, while colon whole tissue and epithelial scrapings upstream from the gavage site was collected for RNA and protein analysis. In the second butyrate reconstitution experiment, mice were rectally given 100 μL of 100 mM butyrate, 100 mM butyrate with 10 mM MCPA, 1.5 mM IOX2, or PBS control under anesthesia. Mice were then sacrificed 1 h after rectal supplementation and colon tissues collected for metabolite, mRNA, and protein analysis from the site of the rectal gavage.
# TRIzol® reagent (ThermoFisher Scientific) was used to isolate total RNA from T84 cells. Mouse colon tissue samples were harvested into RNAlater™ (Invitrogen) and stored at 4°C for 48 h. Total RNA was isolated from the tissues using RNeasy Plus Mini Kit (Qiagen). cDNA was prepared using the iScript cDNA Synthesis Kit (Bio-Rad). Quantitative PCR analysis was performed using the Power SYBR™ Green master mix (Applied Biosystems) in a thermocycler. Fold change in expression of target mRNA relative to β-actin (ACTB) mRNA was calculated using the delta-delta Ct method. Primer sequences used are as follows: hBNIP3 – forward, 5′- […] −3′, reverse, 5′- […] −3′; hBNIP3L – forward, 5′- […] −3′, reverse, 5′- […] −3′; hGLUT1 – forward, 5′- […] −3′, reverse, 5′- […] −3′; hACTB – forward, 5′- […]-3′, reverse, 5′- […]-3′; mBnip3 – forward, 5′- […] −3′, reverse, 5′- […] −3′; mBnip3l – forward, 5′- […] −3′, reverse, 5′- […] −3′; mGlut1 – forward, 5′- […] −3′, reverse, 5′- […] −3′; and mActb – forward, 5′- […] −3′, reverse, 5′- […] −3′.
# T84 cells were rinsed with PBS and collected and lysed in 200 µL of radioimmunoprecipitation assay (RIPA, 50 mM Tris-HCl pH 8.0, 1 mM EDTA, 1% Triton X-100, […], 0.5% sodium deoxycholate, 150 mM NaCl) buffer with protease inhibitors on ice. Mouse colon samples were harvested into 350 µL of RIPA buffer and flash frozen in liquid nitrogen. Samples were homogenized by sonication, and insoluble materials removed by centrifugation at 10,000 g for 5 min at 4°C. Protein quantity of the supernatant was determined using the Bradford reagent. Laemmli sample buffer was added to each sample. Samples (20 µg) were run and separated on 8% SDS-PAGE gels and transferred to polyvinylidene fluoride (PVDF) membranes. Membranes were blocked overnight at 4°C in Tris-buffered saline with 1% Tween-20 (TBS-T) and 5% milk. […]
# PHD2_181-402, sequence (Q9GZT9 181-402): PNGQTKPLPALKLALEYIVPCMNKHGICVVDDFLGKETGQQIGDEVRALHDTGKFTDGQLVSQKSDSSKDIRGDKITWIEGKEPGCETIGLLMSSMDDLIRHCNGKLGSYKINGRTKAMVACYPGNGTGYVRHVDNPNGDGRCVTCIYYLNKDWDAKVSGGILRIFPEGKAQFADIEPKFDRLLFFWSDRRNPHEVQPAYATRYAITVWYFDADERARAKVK
smiles,measurement,setting,value
CCCC(=O)O [Butyrate],change of IC50 with increasing 2-OG,"[1]; 2-OG at 1, 5, 10, 40 or 100 µM",did not change
same,Ki,"[1]; calculated from true IC50 with the IC50 to Ki conversion equation of Cer et al., read-out: noncompetitive Ki",5.3 ± 0.5 mM
same,mode of inhibition,"[1]; from 2-OG titration, WaterLOGSY and MST",noncompetitive
same,IC50,[1]; read-out: True IC50,5.3 ± 0.5 mM
same,"mRNA expression of HIF-1α targets Bnip3, Bnip3l, Glut1","[2]; colon tissue, rectal 100 mM butyrate or 1.5 mM IOX2, 1 h",rescued
same,"mRNA expression of HIF-1α targets Bnip3, Bnip3l, Glut1, butyrate with MCPA","[2]; colon tissue, rectal 100 mM butyrate with 10 mM MCPA, 1 h",rescued
same,colon tissue 2-OG levels,"[2]; rectal 100 mM butyrate or 1.5 mM IOX2, 1 h",rescued
